Patent publication US10500169B2, “Supression of IgE production by compounds derived from traditional chinese medicine” (Sean N. Parker Foundation, priority 2014, dated 2019)
≈ marks a conversion by molar mass, not a printed value.

Assays:
[1] = tested on: peanut sensitized C3H/HeJ Mice; assay: Peanut allergic mouse model, 1,3-Dihydroxyanthraquinone 200 μg per mouse per day for seven weeks; assay type: in vivo
Experimental: FIG. 10 illustrates the in vivo experiment protocol. C3H/HeJ Mice were orally sensitized with 10 mg peanut and […] weekly for 5 weeks as described in methods. At weeks 6, 7 and 8, mice were boosted with 50 mg peanut mixed with cholera toxin. Seven weeks of 1,3-Dihydroxyanthraquinone (200 μg per mouse per day) treatment was started at W6. Mice were challenged with PN at week 13 and again at week 18. Mice were sacrificed 48 hours after last challenge.

[2] = tested on: peanut allergic C3H/HeJ mice; assay: Peanut allergic mouse model, 400 μg of compound intragastrically daily for 4 weeks; assay type: in vivo; conditions: for body temperature following PN challenge: 30 minutes after oral challenge; for histamine level in plasma: week 15 post therapy challenge
Experimental: Freshly ground, whole roasted peanuts were homogenized in sterile PBS (Mediatech, VA) until a smooth suspension was obtained. Female C3H/HeJ mice were sensitized intragastrically (i.g.) with ground PN (10 mg/mouse) and cholera toxin (20 μg), on three consecutive days at week 0, and once a week for 5 weeks, and boosted at weeks 6 and 8 with 50 mg/mouse of PN and cholera toxin (20 μg) (FIG. 37A) as previous described^(40). Mice were intragastrically administered with 400 μg of three different active compounds (arctiin and arctigenin from Arctium lappa L., and 1,3-Dihydroxyanthraquinone from Rubia cordifolia L.) daily 24 h after the week 8 boosting and under this treatment for 4 weeks. Eight PN sensitized/boosted mice receiving 0.5 ml of 0.1% DMSO in water twice daily for the same period of treatment time as sham control mice for this experiment.
Anaphylactic symptoms were evaluated 30 min after challenge dose by two investigators using a scoring system described previously: […]; 1, scratching and rubbing around the snout and head; 2, puffiness around the eyes and mouth, pilar erection and reduced activity with an increased respiratory rate; 3, wheezing, labored respiration and cyanosis around the mouth; 4, no activity after prodding, or tremors, and convulsion; 5, death due to anaphylaxis.
To test the IgE inhibition effect of arctiin, arctigenin, and 1,3-dihydroxyanthraquinone in vivo, we treated peanut allergic mice with 400 μg of each active compound daily for four weeks, as shown in FIG. 37A.^(2)

U266 cells [3] = assay: IgE production by U266 myeloma cells, ELISA of supernatants; assay type: cell-based, human; conditions: for effect on IgE production by U266 cells (in words): different concentrations; for IC50: 6 days culture, read-out: IC50 of inhibition of IgE production by U266 cells
Experimental: The IgE producing human U266 myeloma cell line (American Type Culture Collection; Rockville, Md.) has been used for screening pharmaceutical agents for IgE inhibitory effects, and thus this cell line was used to test the potential IgE inhibitory effects of herb extracts and purified compounds. Cells were cultured at 37° C. under 5% CO2 in complete media containing RPMI 1640 medium supplemented, 10% FBS, 1 mM sodium pyruvate, 1×10^-5 M β-ME and 0.5% penicillin-streptomycin. Cells were grown at an initial concentration of 2×10^5 cells/mL. FAHF-2 and B-FAHF-2, individual herb extracts and isolated compounds at different concentrations were added at day 0. Supernatants were harvested after 6 days culture, and IgE levels were determined by using an ELISA Kit (Mabtech Inc, OH). In each experiment, we run duplicate ELISA. In vitro experiments were repeated at least 3 times.
Human U266 myeloma cells (American Type Culture Collection; Rockville, Md.) were cultured in complete medium (RPMI 1640 medium supplemented, 10% FBS, 1 mM sodium pyruvate, 1×10^−5 M β-ME and 0.5% penicillin-streptomycin) at 37° C. under 5% CO2. Cells were grown at an initial concentration of 2×10^5 cells/mL with purpurin and alizarin from Rubia cordifolia L. at different concentrations (0.31, 0.62, 1.25, 2.5, 5 μg/mL), and with arctiin and arctigenin from Arctium lappa L. at different concentrations ([…]) for 6 days. The supernatants were harvested on day 6 for total IgE analysis using ELISA.

U266 cells [4] = assay: Cell viability of U266 cells, trypan blue exclusion; assay type: cell-based, human; conditions: at the concentrations tested
Experimental: Cell viability was evaluated using a trypan blue exclusion as previously described. Briefly, a 10 μl of cells suspension from each culture was mixed with equal volume of trypan blue dye. The mixture was loaded into a hemocytometer and cells were counted under a microscope. The percentage of viable cells was calculated as follows: Viable cells (%)=(total number of viable cells)/(total number of cells)×100.

human PBMCs = assay: IgE production by PBMCs from food allergic patients stimulated with rIL-4 and anti-CD40 mAb, ELISA; assay type: cell-based; conditions: Homo sapiens, PBMC, 240 h; 20 μg/mL, 10 days, rIL-4 100 ng/mL + anti-CD40 mAb 1 μg/mL
Experimental: PBMCs were isolated by Ficoll Hypaque (Pharmacia, Piscataway, N.J.) using density gradient centrifugation at 1800 RPM for 30 minutes, and washed 3 times in PBS. To determine the optimal stimulation of IgE production by PBMCs, PBMCs at 1.5×10^6 cells/mL were suspended in complete RPMI medium (200 μM L-glutamine, 1% penicillin/streptomycin, 25 mM HEPES, 10% heat inactivated fetal calf serum), and co-stimulated with human recombinant IL-4 (rIL-4) at 0.01 and 0.1 μg/mL (R&D Systems, Minneapolis, Minn., USA) and anti-CD40 monoclonal antibody (mAb) at […] (R&D) for 10 and 14 days. At the end of incubation, the supernatants were collected and IgE levels were analyzed using ELISA kit (Mabtech Inc, OH). Since PBMCs stimulated with 100 ng/mL rIL-4 and 1 μg/mL anti-CD40 mAb produced the highest level of IgE, we used this culture condition for the subsequent studies. PBMCs were stimulated with 100 ng/mL rIL-4 and 1 μg/mL anti-CD40 mAb and cultured in the presence or absence of 20 μg/mL of the two purified compounds for 10 days for screening active compounds, and at different concentrations (0.15, 0.31, 0.62, 1.25, 2.5, 5, 10 μg/mL) to examine dose responses for the effective compounds. IgE level was evaluated using ELISA. The percentage of IgE inhibition was calculated as follows: […]. In some cases if enough PBMCs were obtained, aliquots of PBMCs prepared from the same individuals were used for different experiments.

peanut allergy subjects = conditions: cited from earlier work
[5] = tested on: peanut-allergic patients with high levels of IgE; conditions: cited from earlier work

In the case of `O=C1c2ccccc2C(=O)c2c(O)cc(O)cc21` [1,3-Dihydroxyanthraquinone], the “symptom scores following peanut challenge” value ([1]; vs sham) is reported as “significantly weaker reactions”, the “Peanut-Specific IgE levels” value ([1]; weeks 12 and 16) is reported as “markedly reduced” and the “protection against acute peanut induced anaphylaxis” value ([2]; 400 μg daily for four weeks) is reported as “protected against the acute anaphylaxis”. The “median anaphylactic symptom score” value ([2]; 400 μg daily for four weeks, vs sham) was “significant lower”, the “body temperature following PN challenge” value [2] was “normal body temperatures” and the “histamine level in plasma” value ([2]; vs sham) was “significantly decreased”. The “effect on IgE production by U266 cells (in words)” value (“effect on IgE production” for short) (U266 cells [3]; 6 days) was “dose-dependent inhibition”.
For `O=C1c2ccccc2C(=O)c2c1ccc(O)c2O` [alizarin], the IC50 (U266 cells [3]; Homo sapiens, U-266, 144 h) was 0.762 µg/mL (≈ 3.17 µM) and the “effect on IgE production” value (U266 cells [3]; 6 days) was “inhibited the IgE production in a dose-dependent manner”.
In the case of `COc1cc(C[C@H]2C(=O)OC[C@@H]2Cc2ccc(OC)c(OC)c2)ccc1O` [arctigenin], the “protection against acute peanut induced anaphylaxis” value ([2]; 400 μg daily for four weeks) is reported as “protected against the acute anaphylaxis”, the “body temperature following PN challenge” value [2] is reported as “normal body temperatures” and the “histamine level in plasma” value ([2]; vs sham) is reported as “significantly decreased”. For the same compound, the “effect on IgE production” value (U266 cells [3]; 6 days) was “inhibited the IgE production by U266 in dose-dependent manner”.
In the case of `COc1ccc(C[C@H]2COC(=O)[C@@H]2Cc2ccc(O[C@@H]3O[C@H](CO)[C@@H](O)[C@H](O)[C@H]3O)c(OC)c2)cc1OC` [arctiin], the “effect on IgE production” value (U266 cells [3]; 6 days) is reported as “inhibited the IgE production by U266 in dose-dependent manner”.
For `CC1(C)O[C@H]2CC(=O)OC[C@]23[C@H]2CC[C@@]4(C)[C@H](c5ccoc5)OC(=O)[C@H]5O[C@]54[C@]2(C)C(=O)C[C@@H]13` [limonin], the “cell viability of U266 cells” value (U266 cells [4]) was “no toxicity”, the inhibition at 20 µg/mL (human PBMCs) was 33.9% and the inhibition at 20 µg/mL (U266 cells [3]; Homo sapiens, U-266, 144 h, 20 μg/mL, 6 days) was 35.1%. The “effect on IgE production” value (U266 cells [3]; 6 days) was “mild reduction of IgE production”.
In the case of `O=C1c2ccccc2C(=O)c2c(O)c(O)cc(O)c21` [purpurin], the IC50 (U266 cells [3]; Homo sapiens, U-266, 144 h) is reported as 0.353 µg/mL (≈ 1.38 µM) and the “effect on IgE production” value (U266 cells [3]; 6 days) is reported as “inhibited the IgE production in a dose-dependent manner”.
In the case of “omalizumab: anti-IgE antibody (Xolair, Genentech)”, the “peanut tolerability in oral food challenge” value (peanut allergy subjects; post-therapy (24-week), vs placebo) is given as “greater shift in peanut tolerability”, the “serum peanut specific IgE” value (peanut allergy subjects; post-therapy) is given as “reduction of serum peanut specific IgE” and the “subjects tolerating 4000 mg of peanut flour” value ([5]; after 7-12 weeks) is given as “Twelve of thirteen”. For the same compound, the “subjects tolerating a cumulative dose of 992 mg peanut flour” value ([5]; first day) was “All thirteen” and the patients requiring epinephrine ([5]; in vivo) was 2 patients.
